The results in this text go back to ChEMBL document CHEMBL1128072, “The synthesis and biological evaluation of hypericin analogs” (Bioorg Med Chem Lett, 1995).

Molecules are shown by their SMILES. Calls of active or inactive are those of the source. No cut-off for these calls is given here.

Assay [1] deals with Equine infectious anemia virus. Kind of assay: In vitro anti-retroviral activity against equine infectious anemia virus(EIAV); compound was active. The assay is classed as functional, organism-based.
The test system of assay [2] is Equine infectious anemia virus. Kind of assay: In vitro anti-retroviral activity against equine infectious anemia virus(EIAV); Inactive. Format: functional, organism-based.

Consider `Cc1cc(O)c2c(=O)c3c(O)cc(O)c4c5c(O)cc(O)c6c(=O)c7c(O)cc(C)c8c1c2c(c34)c(c78)c65`, for which the result in assay [1] was Active.
With `O=c1c2c(O)cc(O)c3c4c(O)cc(O)c5c(=O)c6c(O)cc(O)c7c8c(O)cc(O)c1c8c(c23)c(c54)c67`, the outcome in assay [2] was inactive.
In the case of `COc1cc(O)c2c(=O)c3c(O)cc(O)c4c5c(O)cc(O)c6c(=O)c7c(O)cc(OC)c8c1c2c(c34)c(c65)c78`, the outcome in assay [1] was Active.
Regarding `Cc1c(O)c2c(=O)c3c(O)c(C)c(O)c4c5c(O)c(C)c(O)c6c(=O)c7c(O)c(C)c(O)c8c(c1O)c2c(c34)c(c78)c65`, in assay [2], the result was inactive.
